Measurements taken from the supplement of paper PMC13380429.

Columns and labels:
Settings in all cases: 72 h
Calu-3 [1] = assay: cell viability relative to DMSO; higher = less toxic
HepG2 [2] = assay: as above
U2OS [3] = assay: as above
Vero E6 [4] = assay: as above
Caco-2 [5] = assay: as above
Calu-3 [6] = assay: relative viability EC50 (midpoint between 100% and the lowest measured viability); higher = less toxic
HepG2 [7] = assay: as above
U2OS [8] = assay: as above
Vero E6 [9] = assay: as above
Caco-2 [10] = assay: as above
Calu-3 [11] = assay: drug sensitivity score (DSS) for viability; higher = more toxic; extreme values may be limits of the assay
HepG2 [12] = assay: as above
U2OS [13] = assay: as above
Vero E6 [14] = assay: as above
Caco-2 [15] = assay: as above

Structure (SMILES) | cell viability (Calu-3 [1]; 1 nM) [%] | cell viability (Calu-3 [1]; 10 nM) [%] | cell viability (Calu-3 [1]; 100 nM) [%] | cell viability (Calu-3 [1]; 1000 nM) [%] | cell viability (Calu-3 [1]; 10000 nM) [%] | cell viability (HepG2 [2]; 1 nM) [%] | cell viability (HepG2 [2]; 10 nM) [%] | cell viability (HepG2 [2]; 100 nM) [%] | cell viability (HepG2 [2]; 1000 nM) [%] | cell viability (HepG2 [2]; 10000 nM) [%] | cell viability (U2OS [3]; 1 nM) [%] | cell viability (U2OS [3]; 10 nM) [%] | cell viability (U2OS [3]; 100 nM) [%] | cell viability (U2OS [3]; 1000 nM) [%] | cell viability (U2OS [3]; 10000 nM) [%] | cell viability (Vero E6 [4]; 1 nM) [%] | cell viability (Vero E6 [4]; 10 nM) [%] | cell viability (Vero E6 [4]; 100 nM) [%] | cell viability (Vero E6 [4]; 1000 nM) [%] | cell viability (Vero E6 [4]; 10000 nM) [%] | cell viability (Caco-2 [5]; 1 nM) [%] | cell viability (Caco-2 [5]; 10 nM) [%] | cell viability (Caco-2 [5]; 100 nM) [%] | cell viability (Caco-2 [5]; 1000 nM) [%] | cell viability (Caco-2 [5]; 10000 nM) [%] | relative viability EC50 (Calu-3 [6]) [µM] | relative viability EC50 (HepG2 [7]) [µM] | relative viability EC50 (U2OS [8]) [µM] | relative viability EC50 (Vero E6 [9]) [µM] | relative viability EC50 (Caco-2 [10]) [µM] | drug sensitivity score (Calu-3 [11]) | drug sensitivity score (HepG2 [12]) | drug sensitivity score (U2OS [13]) | drug sensitivity score (Vero E6 [14]) | drug sensitivity score (Caco-2 [15])
N[C@@H]1CONC1=O [cycloserine-(D)] | 99.6 | 102 | 97.2 | 105 | 96.7 | 106 | 101 | 104 | 89.7 | 108 | 96.7 | 96.3 | 96.4 | 96.7 | 97 | 99.6 | 104 | 98.2 | 99.8 | 103 | 89.5 | 96.2 | 100 | 98.7 | 105 | > 10 | > 10 | > 10 | > 10 | > 10 | 0 | 0 | 0 | 0 | 0
N#CN1CCCC1 [pyrrolidine-1-carbonitrile] | 97.6 | 104 | 108 | 107 | 97.9 | 90.6 | 91.1 | 94.4 | 95.2 | 101 | 90.3 | 98 | 97.9 | 104 | 107 | 99.6 | 99.2 | 98.2 | 95.3 | 105 | 103 | 94.7 | 95.4 | 95.9 | 110 | > 10 | > 10 | > 10 | > 10 | > 10 | 0 | 0 | 0 | 0 | 0
CC[C@H](C)[C@H](N)C1=N[C@H](C(=O)N[C@@H](CC(C)C)C(=O)N[C@H](CCC(=O)[O-])C(=O)N[C@H](C(=O)N[C@H]2CCCCNC(=O)[C@H](CC(N)=O)NC(=O)[C@@H](CC(=O)[O-])NC(=O)[C@H](Cc3cnc[nH]3)NC(=O)[C@@H](Cc3ccccc3)NC(=O)[C@H]([C@@H](C)CC)NC(=O)[C@@H](CCCN)NC2=O)[C@@H](C)CC)CS1.[Zn+2] [bacitracin-zinc] | 93.7 | 106 | 112 | 99.9 | 106 | 96.9 | 100 | 110 | 93.6 | 111 | 92.8 | 99.4 | 96.4 | 103 | 104 | 96.2 | 89.9 | 100 | 95.5 | 112 | 93.8 | 90.5 | 104 | 104 | 110 | > 10 | > 10 | > 10 | > 10 | > 10 | 0 | 0 | 0 | 0 | 0
Cc1nc2ccc(Oc3ccc(F)cc3)cc2c(=O)n1C[C@H]1CCCN(C(C)C)C1 [YIL-781] | 107 | 88.2 | 94.9 | 97.7 | 97.8 | 101 | 100 | 97.4 | 102 | 90.7 | 104 | 97.1 | 98.6 | 94.4 | 94.7 | 93.8 | 98.3 | 96.4 | 94.3 | 88.3 | 102 | 93.5 | 87.2 | 97.5 | 92.6 | > 10 | > 10 | > 10 | > 10 | > 10 | 0 | 0 | 0 | 0 | 0
O=C1CCC2CCC(=O)N12 [rolziracetam] | 91 | 87 | 99.1 | 103 | 96.3 | 114 | 104 | 96.1 | 108 | 116 | 98 | 100 | 101 | 96.7 | 102 | 94.9 | 105 | 97.8 | 102 | 97.5 | 79.1 | 112 | 82.8 | 98.6 | 89.1 | > 10 | > 10 | > 10 | > 10 | > 10 | 0 | 0 | 0 | 0 | 0
N=C(N)NCCCC[C@@H]1NC(=O)CCSSC[C@@H](C(N)=O)NC(=O)[C@@H]2CCCN2C(=O)[C@H](Cc2c[nH]c3ccccc23)NC(=O)[C@H](CC(=O)O)NC(=O)CNC1=O [eptifibatide] | 96.4 | 104 | 100 | 103 | 101 | 97 | 92.6 | 94.7 | 87.1 | 95.5 | 96.6 | 97.4 | 93.7 | 98.5 | 96 | 105 | 95.2 | 100 | 94.8 | 83.3 | 94.6 | 99.5 | 85.8 | 95.4 | 95.6 | > 10 | > 10 | > 10 | > 10 | > 10 | 0 | 0 | 0 | 0.9 | 0
O=c1cc(-c2ccccc2)oc2cc(O)cc(O)c12 [chrysin] | 94.5 | 92.9 | 106 | 91.7 | 102 | 88.5 | 102 | 93.5 | 100 | 104 | 98.4 | 97 | 101 | 97.4 | 99.2 | 92.5 | 102 | 87.9 | 94.8 | 111 | 99.4 | 86.9 | 102 | 91.9 | 94.4 | > 10 | > 10 | > 10 | > 10 | > 10 | 0 | 0 | 0 | 0 | 0
CC1CCN(C(c2ccc(F)cc2)c2ccc(C(C)C(=O)O)cc2-c2ccc(C(F)(F)F)cc2)CC1 (stereo not given) [TC-E-5006] | 104 | 92.3 | 94.9 | 96.2 | 103 | 97.5 | 103 | 99 | 101 | 81.6 | 102 | 97.9 | 101 | 96.5 | 93.2 | 97.4 | 104 | 95.4 | 99.2 | 100 | 105 | 99.5 | 96.2 | 89 | 90.1 | > 10 | > 10 | > 10 | > 10 | > 10 | 0 | 0.4 | 0 | 0 | 0.3
CCCCCCCC/C=C\CCCCCCCC(N)=O [oleamide] | 107 | 98.7 | 93.9 | 104 | 89.7 | 104 | 101 | 99.2 | 92.7 | 104 | 98.8 | 103 | 97.1 | 100 | 91.3 | 97.3 | 99.3 | 100 | 100 | 101 | 99.3 | 92.4 | 95.3 | 96.5 | 99.7 | > 10 | > 10 | > 10 | > 10 | > 10 | 0 | 0 | 0 | 0 | 0
O=C1Nc2ccc(Cl)cc2[C@@](C#CC2CC2)(C(F)(F)F)O1 [efavirenz] | 97.5 | 107 | 93.8 | 97.7 | 114 | 92.1 | 86.1 | 95.9 | 83.4 | 94.6 | 99.2 | 96.3 | 98.4 | 106 | 94.5 | 98.4 | 93.5 | 91.4 | 90 | 101 | 95.7 | 96.3 | 83.3 | 96.3 | 124 | > 10 | > 10 | > 10 | > 10 | > 10 | 0 | 0 | 0 | 0 | 0
O=C(Nc1cccc(C(F)(F)F)c1)Nc1cc(S(=O)(=O)NC2CC2)ccc1-c1ccsc1 [AGI-6780] | 96.9 | 90.4 | 99 | 103 | 110 | 93.3 | 103 | 94 | 105 | 86.5 | 97.6 | 98.9 | 101 | 92.3 | 87.5 | 95.1 | 97.4 | 93.5 | 97.2 | 106 | 94.2 | 93 | 99.8 | 97.4 | 85.7 | > 10 | > 10 | > 10 | > 10 | > 10 | 0 | 0.1 | 0.4 | 0 | 0.4
Cc1cc2nc3c(=O)[nH]c(=O)nc-3n(C)c2cc1C=O [Ro-08-2750] | 104 | 103 | 96 | 102 | 81.9 | 109 | 105 | 100 | 109 | 37.1 | 94.4 | 99.2 | 94.1 | 97.8 | 5.6 | 96.6 | 94.3 | 97.6 | 92.5 | 101 | 92.4 | 90 | 96.4 | 90.2 | 40 | > 10 | 3.78 | 3 | > 10 | 1.91 | 0.4 | 2.9 | 5.5 | 0 | 4.9
O=C(O)c1ccc2c(c1)C(=O)N(c1cccc(Oc3ccc([N+](=O)[O-])cc3)c1)C2=O | 94.8 | 96.5 | 104 | 96.8 | 99 | 104 | 94.8 | 95.5 | 92.9 | 103 | 95.5 | 99 | 94.6 | 99 | 94.3 | 94.1 | 99.7 | 98.7 | 90.1 | 100 | 92.5 | 102 | 98 | 94.7 | 100 | > 10 | > 10 | > 10 | > 10 | > 10 | 0 | 0 | 0 | 0 | 0
COC(=O)CN1CN(c2ccccc2)C2(CCN(Cc3cccc4ccccc34)CC2)C1=O [NNC-63-0532] | 98.2 | 106 | 97.7 | 114 | 102 | 93.5 | 104 | 99.6 | 95 | 99.8 | 100 | 96.1 | 94.9 | 102 | 98.7 | 90.2 | 97.3 | 96.5 | 90.7 | 103 | 102 | 96.3 | 95 | 99.7 | 96.9 | > 10 | > 10 | > 10 | > 10 | > 10 | 0 | 0 | 0 | 0 | 0
